Experiment: Pain relief and mobility in patients with musculoskeletal trauma, flavonoid/flavonol versus NSAID
Assay type: in vivo, human
Experimental: A preparation containing 2000 mg of quercitin and 20 mg OPC flavonols was given to one group of patients every 6 hours relief of pain. A second group of patients were given 650 mg of […]) every 4 hours.

[1] = Acute knee trauma patellar dislocation

Which results are given for `Cc1ccc(-c2cc(C(F)(F)F)nn2-c2ccc(S(N)(=O)=O)cc2)cc1` [NSAID]?
mobility [1]: mobility = 10; pain dec [1]: pain dec = 5; mobility (Basketball "groin muscle pull"): mobility = 30; pain dec (Basketball "groin muscle pull"): pain dec = 15; mobility (Blunt injury to R. shoulder): mobility = 25; pain dec (Blunt injury to R. shoulder): pain dec = 20
